The values below come from US6844004B2, “Topical formulations of natamycin/pimaricin” (Board of Regents, The University of Texas System, priority 1997, dated 2005).

Values after ≈ are worked out from the molar mass of the structure shown.

For series [1] the following is noted: surface in contact with AMB; cited from earlier work.
The test system of a further series is A. flavus. As to the kind of experiment: Antifungal sensitivity (MIC). To be noted: Aspergillus flavus; the tested A. flavus. It counts as cell-based. The protocol: (§1) Methodology. The antifungal activity of Natamycin was compared with that of amphotericin B utilizing a previously described assay (Anaissie et al., 1991). Briefly, serial dilutions of Natamycin and AMB were mixed in RPMI growth medium with L-glutamine and MOPS-buffer, pH 7.0 (Sigma Chemical Co., St. Louis, Mo.). The different strains of Candida, Aspergillus and Fusarium spp. were then added to the dishes. After incubation at 35° C. for 48 to 72 hours the plates were evaluated for fungal proliferation. The used fungal strains were obtained from the ATCC or isolated from patients, primarily at the MD Anderson Cancer Center. The Natamycin concentrations in the used solutions were assayed with HPLC to assure the highest possible reproducibility of the drug concentrations.

Series [2] deals with Aspergillus strains, except for A. flavus. Nature of the series: Antifungal sensitivity (MIC). It counts as cell-based. To be noted: all Aspergillus strains except A. flavus. The procedure:
as §1

Series [3] has as its system tested strains of Candida spp. As to the kind of experiment: Antifungal sensitivity (MIC). Format: cell-based. As to conditions: all tested strains of Candida spp. The protocol:
as §1

Series [4] relates to tested strains of Fusarium. As to the kind of experiment: Antifungal sensitivity (MIC). Format: cell-based. To be noted: all tested strains of Fusarium. The procedure: as §1
Another series can be described thus: physchem. Format: physicochemical. To be noted: 22 °C, organic solvent or mixture, thermodynamic from solid. The protocol:
Natamycin solubility was determined in several individual vehicles (see Table I). Briefly, a known amount of the drug, as a powder (different lots of purified drug were obtained from Gist-Brocades N.V., Netherlands, and from Sigma Chemical Company, St Louis, Mo.), was equilibrated in the respective solvent at RT (22° C.) over 5 min to 4 hours. An aliquot was then removed and diluted in MeOH prior to HPLC at predetermined times. Based on the Natamycin solubility in these particular vehicles, the inventors attempted to enhance the solubility by mixing different solvents according to the principle of cosolvency (Spiegel and Noseworthy, 1963; Yalkowsky and Roseman, 1981). Several different solvent systems were evaluated relative to the above estimates of necessary solubility to arrive at a clinically relevant optimal stock formulation. […] The “final solvent” is preferably one of the commonly available ointment bases, such as petroleum jelly, cocoa butter, Aquaphor™, all of which are readily available and commonly used for topical administration, either for moisturizing purpose or for dissolving various chemically active compounds.
Solubility Studies. […] Samples of 1 ml were taken at various time intervals, and filtered through a 0.45 μm PTFE™ membrane filter fitted to a syringe assembly (Whatman Inc.), and after appropriate dilution, the Natamycin concentration was determined by HPLC.

The format of series [5] is physicochemical. The procedure: Stability of the various Natamycin formulations. To study the physical and chemical stability of the various parenteral formulations, three sets of studies were performed: • (a) Natamycin was dissolved at a concentration of 100-300 mg/ml in HAc (“stock solution”) and incubated at 4° C., at 22° C. and at 40° C. The drug concentration was analyzed by HPLC in samples taken immediately after solubilization and after gradually increasing time intervals of up to 48 hours. • (b) The Natamycin-HAc stock solution was diluted with PEG/water (1:1:1, v:v:v, HAc:PEG:water), or PG/DMSO (1:1:1, v:v:v), or PG/DMSO/PEG (1:1:1:1, v:v:v:v), or aqueous lipid emulsion (1:10 and 1:100, v:v, HAc:Intralipid™), to yield Natamycin concentrations ranging from 1-50 mg/ml. • (c) The HAc-Natamycin mixture was diluted in NS or 5% dextrose to a drug concentration of 1 mg/ml. (d) The HAc-Natamycin mixture was blended with DMSO and Intralipid™, or directly in Intralipid™.
The various formulations were analyzed by HPLC immediately after mixing, then hourly for 8 hours, and then at gradually increasing time intervals up to several weeks, depending on the rate of degradation in the respective solvent system.
The temperature-dependent stability of solubilized Natamycin in the different solvent systems was studied as follows: The drug was dissolved in HAc at 100 mg/ml, and different aliquots were stored at 4° C., at 22° C., and at 40° C. Immediately after solubilization and at various intervals up to 48 hours later, aliquots from the different samples were analyzed by HPLC. The drug samples stored at 4° C. and at 22° C. degraded slower than those stored at higher temperatures: at 40° C. the Natamycin started degrading within 1 hour after the start of incubation, and at RT there was a loss of 5-10% in the first 4 hours.

As to `C[C@@H]1[C@H](O)[C@@H](C)/C=C/C=C/C=C/C=C/C=C/C=C/C=C/[C@H](O[C@@H]2O[C@H](C)[C@@H](O)[C@H](N)[C@@H]2O)C[C@@H]2O[C@](O)(C[C@@H](O)C[C@@H](O)[C@H](O)CC[C@@H](O)C[C@@H](O)CC(=O)O[C@H]1C)C[C@H](O)[C@H]2C(=O)O` [AMB, Amphotericin B], in series [1], the “inflammation of the mucosal surface, share of treated subjects” value was over 75%.

Consider `C[C@@H]1C/C=C/C=C/C=C/C=C/[C@H](O[C@@H]2O[C@H](C)[C@@H](O)[C@H](N)[C@@H]2O)C[C@@H]2O[C@](O)(C[C@@H](O)C[C@H]3O[C@@H]3/C=C/C(=O)O1)C[C@H](O)[C@H]2C(=O)O` [Natamycin, Pimaricin], for which the lowest concentration to inhibit growth in the series with A. flavus (MIC) was 16 µg/mL (≈ 24 µM). The MIC in series [2] fell in the range of 2 to 4 µg/mL (≈ 3 to 6.01 µM). The “MIC (sensitive in the range)” value in series [3] lay in the range of 2 to 4 µg/mL. Moreover, the “MIC (sensitive in the range)” value in series [4] lay within 2 to 4 µg/mL. Moreover, the thermodynamic solubility in the series “physchem” was over 100 mg/mL. For the same compound, in series [5] (100 mg/ml), the “loss of drug (degradation)” value is listed as 5-10%, the “time to start of degradation” value is at most 1 h and the “time until degradation apparent” value was in the range of 8 to 12 h. Further, in series [5] (HAc and DMSO primary solvent, Intralipid, lyophilized, reconstituted to 10 mg/ml with distilled water, RT), the “time stable (by HPLC)” value is reported as “more than 24 hours”. The time stable result in series [5] (HAc-Natamycin stock diluted with 20% Intralipid to 10-50 mg/ml) is “more than 6 weeks”.

In general, MIC refers to the least concentration at which growth counts as inhibited. Low readings indicate a more susceptible organism, high ones a less susceptible organism. By thermodynamic solubility is commonly meant the concentration in solution at equilibrium with solid.
